Among the data in ChEMBL document CHEMBL4346732, “Inhibition of neutral lipid synthesis by avarols from a marine sponge” (Bioorg Med Chem Lett, 2019) are IC50 values, retold here.

A short description of test [1]: Inhibition of SOAT-mediated oleic acid-induced [14C]cholesterol ester accumulation in CHOK1 cells after 6 hrs using [14C]oleic acid by […]. The test is classed as cell-based. To be noted: Cricetulus griseus, CHO-K1, 6 h.
Test [2] is described as follows: Inhibition of DGAT-mediated oleic acid-induced [14C]neutral lipid synthesis in CHOK1 cells after 6 hrs using [14C]oleic acid by […]. The test is classed as cell-based. The conditions noted are these: Cricetulus griseus, CHO-K1, 6 h.
In another test the test system is CHO-K1. Briefly: Cytotoxicity against CHOK1 cells assessed as reduction in cell viability. The test is classed as cell-based. To be noted: Cricetulus griseus.
Test [3] in a line: Inhibition of SOAT in CHOK1 cell microsomal fraction using [1-14C]oleoyl-CoA as substrate measured after 5 mins by TLC based method. Set-up: species or system Cricetulus griseus.
Test [4] in a line: Inhibition of DGAT in CHOK1 cell microsomal fraction using [14C]palmitoyl-CoA as substrate measured after 15 mins TLC based method. Set-up: species or system Cricetulus griseus.
The target of test [5] is T1, Sterol O-acyltransferase 1 (Chlorocebus aethiops, UniProt O77760).
T1 sequence (O77760 whole entry): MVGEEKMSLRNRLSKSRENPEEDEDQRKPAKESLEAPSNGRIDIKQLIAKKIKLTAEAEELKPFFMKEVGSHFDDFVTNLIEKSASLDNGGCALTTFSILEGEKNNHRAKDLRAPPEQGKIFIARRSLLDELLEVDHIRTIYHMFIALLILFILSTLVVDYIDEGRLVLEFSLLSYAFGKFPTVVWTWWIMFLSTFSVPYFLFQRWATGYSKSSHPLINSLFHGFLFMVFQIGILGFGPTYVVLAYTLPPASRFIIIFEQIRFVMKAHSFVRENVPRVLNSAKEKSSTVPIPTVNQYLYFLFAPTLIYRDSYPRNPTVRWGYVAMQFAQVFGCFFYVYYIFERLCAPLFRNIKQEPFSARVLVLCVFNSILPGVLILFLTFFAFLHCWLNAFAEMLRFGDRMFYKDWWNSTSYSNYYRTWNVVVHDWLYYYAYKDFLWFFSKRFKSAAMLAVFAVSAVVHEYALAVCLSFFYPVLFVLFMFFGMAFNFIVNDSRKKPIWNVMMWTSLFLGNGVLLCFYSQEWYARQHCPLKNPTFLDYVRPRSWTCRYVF
Briefly: Inhibition of African green monkey SOAT1 expressed in CHO cells using [1-14C]oleic acid incubated for 6 hrs by TLC based method. The test is classed as cell-based.

For test [6], the target named is T2, Sterol O-acyltransferase 2 (Chlorocebus aethiops, UniProt O77759).
T2 sequence (O77759 whole entry): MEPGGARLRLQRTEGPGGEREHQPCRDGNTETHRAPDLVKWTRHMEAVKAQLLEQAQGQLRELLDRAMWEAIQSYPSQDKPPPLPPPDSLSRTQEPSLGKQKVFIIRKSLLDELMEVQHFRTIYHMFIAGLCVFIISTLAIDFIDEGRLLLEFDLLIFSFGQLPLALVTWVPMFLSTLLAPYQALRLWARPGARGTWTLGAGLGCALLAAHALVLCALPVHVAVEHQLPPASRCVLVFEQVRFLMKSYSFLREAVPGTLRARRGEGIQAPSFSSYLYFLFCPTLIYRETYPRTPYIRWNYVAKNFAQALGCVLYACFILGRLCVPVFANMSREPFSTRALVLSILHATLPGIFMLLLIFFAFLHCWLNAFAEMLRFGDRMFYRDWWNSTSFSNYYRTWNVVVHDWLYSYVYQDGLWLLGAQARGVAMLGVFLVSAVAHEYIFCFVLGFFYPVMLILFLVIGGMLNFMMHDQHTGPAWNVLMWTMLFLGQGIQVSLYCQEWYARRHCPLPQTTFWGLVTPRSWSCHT
Briefly: Inhibition of African green monkey SOAT2 expressed in CHO cells using [1-14C]oleic acid incubated for 6 hrs by TLC based method. The test is classed as cell-based.

In test [7] the target is T3, Sterol O-acyltransferase 1 (Cricetulus griseus, UniProt Q60457).
T3 sequence (Q60457 whole entry): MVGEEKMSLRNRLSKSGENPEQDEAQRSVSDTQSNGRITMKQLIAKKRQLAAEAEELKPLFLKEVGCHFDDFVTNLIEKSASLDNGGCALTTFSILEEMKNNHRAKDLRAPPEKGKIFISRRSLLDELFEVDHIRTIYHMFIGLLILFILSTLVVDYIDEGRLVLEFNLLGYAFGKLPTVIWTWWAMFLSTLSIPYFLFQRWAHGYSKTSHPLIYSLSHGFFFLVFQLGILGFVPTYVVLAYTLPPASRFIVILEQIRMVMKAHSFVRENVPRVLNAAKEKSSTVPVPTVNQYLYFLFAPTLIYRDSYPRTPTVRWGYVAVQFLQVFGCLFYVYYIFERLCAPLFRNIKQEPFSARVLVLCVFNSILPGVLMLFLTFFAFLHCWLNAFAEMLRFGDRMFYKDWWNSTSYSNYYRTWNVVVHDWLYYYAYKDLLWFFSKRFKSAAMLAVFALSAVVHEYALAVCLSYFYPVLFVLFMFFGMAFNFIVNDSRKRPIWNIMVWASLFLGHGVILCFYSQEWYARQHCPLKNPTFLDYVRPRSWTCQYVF
Briefly: Inhibition of SOAT1 in CHO cell microsomal fraction using [1-14C]oleoyl-CoA as substrate measured after 5 mins by TLC based method.

Test [8] is described as follows: Inhibition of SOAT2 in CHO cell microsomal fraction using [1-14C]oleoyl-CoA as substrate measured after 5 mins by TLC based method. Set-up: species or system Cricetulus griseus.

For `CC1=CCC[C@H]2[C@]3(C)Cc4cc(O)ccc4O[C@]3(C)CC[C@]12C`, the half-inhibitory concentration (IC50) in [1] is 13.9 µM; in [2], above 31.1 µM; with CHO-K1, above 31.1 µM.

In the case of `CC(=O)Oc1ccc(O)c(C[C@]2(C)[C@@H](C)CC[C@]3(C)C(C)=CCC[C@@H]23)c1`, the IC50 is 23.1 µM in [1], above 27.3 µM in [2] and above 27.3 µM in the test on CHO-K1.

As to `C=C1CCC[C@H]2[C@](C)(Cc3cc(OC)ccc3O)[C@@H](C)CC[C@]12C`, the values for the half-inhibitory concentration (IC50) (in test [1]; in [2]; in the test with CHO-K1) were 10.4 µM, above 29.6 µM and above 29.6 µM, respectively.

For `COc1ccc(O)c(C[C@]2(C)[C@@H](C)CC[C@]3(C)C(C)=CCC[C@@H]23)c1`, the results for the 50% inhibitory concentration (IC50) (in test [1]; in [2]; in the test on CHO-K1) were 11.4 µM, above 29.6 µM and above 29.6 µM, respectively.

Take `C=C1CCC[C@H]2[C@](C)(Cc3cc(O)ccc3OC(C)=O)[C@@H](C)CC[C@]12C`: the half-inhibitory concentration (IC50) in [1] is 11.9 µM; in test [2], above 27.3 µM; with CHO-K1, above 27.3 µM.

Consider `CC(=O)Oc1ccc(OC(C)=O)c(C[C@]2(C)[C@@H](C)CC[C@]3(C)C(C)=CCC[C@@H]23)c1`, for which the IC50 is 16.5 µM in test [1], 23.5 µM in test [2] and above 24.4 µM in the test on CHO-K1.

As for `C=C1CCC[C@H]2[C@](C)(Cc3cc(OC(=O)CC)ccc3OC(=O)CC)[C@@H](C)CC[C@]12C`, the half-inhibitory concentration (IC50) in test [1] is 11 µM; in test [2], above 22.8 µM; in the test on CHO-K1 it was above 22.8 µM.

On to `C=C1CCC[C@H]2[C@](C)(Cc3cc(O)ccc3O)[C@@H](C)CC[C@]12C`, for which the half-maximal inhibitory concentration (IC50) in [1] was 11 µM; in test [2], 14.2 µM; in the test on CHO-K1 it was above 30.9 µM; in test [3], 15.6 µM; in test [4], 44.3 µM; in test [5], 19.2 µM. Further, the half-inhibitory concentration (IC50) worked out at 19.1 µM in [6], 32 µM in test [7] and 14 µM in test [8].

With `CCC(=O)Oc1ccc(OC(=O)CC)c(C[C@]2(C)[C@@H](C)CC[C@]3(C)C(C)=CCC[C@@H]23)c1`, the half-maximal inhibitory concentration (IC50) was 16.7 µM in [1], 13.5 µM in test [2] and above 22.8 µM with CHO-K1.

As to `C=C1CCC[C@H]2[C@](C)(Cc3cc(OC(C)=O)ccc3OC(C)=O)[C@@H](C)CC[C@]12C`, the IC50 in test [1] is 10.8 µM; in test [2] it was above 24.4 µM; in the test with CHO-K1 it was above 24.4 µM.

Take `CC1=CCC[C@H]2[C@](C)(CC3=CC(=O)C=C(N)C3=O)[C@@H](C)CC[C@]12C`: the values for the IC50 (in [1]; in test [2]; in the test on CHO-K1) were 13.2 µM, 27.5 µM and above 30.9 µM, respectively.

For the molecule `C=C1CCC[C@H]2[C@](C)(Cc3cc(OC(C)=O)ccc3O)[C@@H](C)CC[C@]12C`, the IC50 in [1] was 16 µM; in [2], above 27.3 µM; in the test with CHO-K1, above 27.3 µM.

For the molecule `CC(=O)Oc1ccc(O)cc1C[C@]1(C)[C@@H](C)CC[C@]2(C)C(C)=CCC[C@@H]12`, the results for the 50% inhibitory concentration (IC50) (in test [1]; in [2]; in the test on CHO-K1) were 13.7 µM, above 27.3 µM and above 27.3 µM, respectively.

Take `CC1=CCC[C@H]2[C@](C)(Cc3cc(O)ccc3O)[C@@H](C)CC[C@]12C` [AVAROL]: the IC50 in test [1] was 5.74 µM; in [2], 6.8 µM; with CHO-K1, above 30.9 µM; in [3], 7.31 µM; in test [4] it was 20 µM; in [5], 14.2 µM. The results for the concentration for half-maximal inhibition (IC50) in [6], in test [7] and in test [8] were 14.8 µM, 12 µM and 8.1 µM, respectively.
